# Measurements: patent US8859463B2, “Method for controlling noxious organisms” (Sumitomo Chemical Company, Limited, priority 2009, dated 2014)
# Tests used:
# Assay type in all cases: in vivo
# Spodoptera litura = test: Insecticidal effect (protective value), corn pot test, Example 4; details: clothianidin none, day 3 after release
# Procedure: (§1) The evaluation of the insecticidal effect was performed by determining the life and death of the insects at the time of the investigation and calculating the protective value according to the following equation; Protective Value (%)=100×(1−T/C) wherein the symbols have the following meanings;
# (§2) C: The number of insects at the time of observation in an untreated section: and
# (§3) T: The number of insects at the time of observation in a treated section.
# In addition, the clothianidin suspension was attached to the corn seeds in a similar manner except that it was used in an amount of 217.5 μL.
# Thereafter, the test pot was placed in a greenhouse. On day 22 after corn sowing, 10 fourth-instar larvae of Spodoptera litura were released in the pot and the whole pot was then covered with a nylon cloth.
# On day 3 after release of Spodoptera litura, the insecticidal effect was examined.
# Ipomoea hederacea [1] = test: Herbicidal activity, corn pot test, Example 16; details: azole seed treatment none, flumioxazin 50 g/ha, twelve days after sowing
# Procedure: In a glass container measuring 60 mm in inner diameter and 20 mm in height, 8 μl of a prothioconazole emulsifiable concentrate (emulsifiable concentrate containing 25% prothioconazole, manufactured by Bayer Crop Science Inc. under the trade name of Proline) and 20 corn seeds were placed. The prothioconazole emulsifiable concentrate was adhered to the corn seeds by shaking this plastic cup by hand. In the same manner, 8 μl of a difenoconazole emulsifiable concentrate (emulsifiable concentrate containing 25% difenoconazole, manufactured by Syngenta under the trade name of Score) was adhered to 20 corn seeds. In the same manner, 50 mg of a tebuconazole suspension (suspension containing 20% tebuconazole, manufactured by Hokko Chemical Industry under the trade name of ONLY ONE Flowable) was adhered to 20 corn seeds.
# A plastic pot measuring 194 mm in inner diameter and 176 mm in height was filled with the soil. In this pot, 3 corn seeds were sown per 1 pot and 10 seeds of Ipomoea hederacea were sown per 1 pot. […]
# Ipomoea hederacea [2] = test: Herbicidal effect, soybean Wagner pot test, Example 6; details: clothianidin none; flumioxazin 25 g/ha; day 11 after sowing; scale 0 to 100
# Source text: A soil was packed in a 1/5000a Wagner pot. The above soybean seeds were sown in the Wagner pot at a rate of two seeds per pot, and the seeds of Ipomoea hederacea were sown in the pot at a rate of three seeds per pot.
# On day 11 after sowing of the seeds of soybean and Ipomoea hederacea, the herbicidal effect and phytotoxicity were examined.
# Aulacorthum solani [3] = test: Insecticidal effect (protective value), soybean pot test, Example 1; details: clothianidin none, day 6 after release
# Procedure: as §1, §2, §3
# (§4) Thereafter, the test pot was placed in a greenhouse.
# Aulacorthum solani [4] = test: Insecticidal effect (protective value), soybean pot test, Example 2; details: thiamethoxam none; flumioxazin 50 g/ha; day 6 after release
# Procedure: as §1, §2, §3, §4
# Ipomoea lacunosa [5] = test: Herbicidal activity, corn pot test, Example 76; details: metalaxyl-M none, flumioxazin 25 g/ha, ten days after sowing
# Procedure: In a glass container measuring 60 mm in inner diameter and 20 mm in height, 15 mg of a metalaxyl-M emulsifiable concentrate (emulsifiable concentrate containing 33.3% metalaxyl-M, manufactured by Syngenta under the trade name of Apron XL) and 25 corn seeds were placed. After capping this glass container, the metalaxyl-M emulsifiable concentrate was adhered to the corn seeds by shaking the glass container by hand. In the same manner, 33 mg of the metalaxyl-M emulsifiable concentrate was adhered to the corn seeds.
# (§5) A plastic pot measuring 194 mm in inner diameter and 176 mm in height was filled with the soil. In this pot, 2 corn seeds were sown per 1 pot and 10 seeds of Ipomoea lacunosa were sown per 1 pot. On the day of sowing of the corn seeds, after sowing the corn seeds, a water diluted solution (24.5 mg of product/liter) of a flumioxazin granular wettable powder (granular wettable powder containing 51% flumioxazin, manufactured by Valent USA Corporation under the trade name of Valor SX), a water diluted solution (66.7 mg of product/liter) of a sulfentrazone granular wettable powder (granular wettable powder containing 75% sulfentrazone manufactured by FMC Corporation under the trade name of Cover), a water diluted solution (15 mg/liter) of saflufenacil and a water diluted solution (100 mg/liter) of oxyfluorfen were uniformly sprayed over a surface of the soil in each amount described in Tables 28 to 31, using a sprayer. The water diluted solutions of saflufenacil and oxyfluorfen were prepared by dissolving each predetermined amount of saflufenacil and oxyfluorfen in acetone containing 2% (w/v) Tween 20 and diluting each solution with water so as to adjust the concentration of acetone to 10% by volume.
# Ten days after sowing the seeds of corn and Ipomoea lacunosa, herbicidal activity was examined.
# Ipomoea lacunosa [6] = test: Herbicidal activity, corn pot test, Example 59; details: pyraclostrobin none, flumioxazin 25 g/ha, twelve days after sowing
# Procedure: In a glass container measuring 60 mm in inner diameter and 20 mm in height, 8 mg of a pyraclostrobin emulsifiable concentrate (emulsifiable concentrate containing 23.8% pyraclostrobin, manufactured by BASF under the trade name of Comet) and 25 corn seeds were placed. After capping a glass container, the pyraclostrobin emulsifiable concentrate was adhered to the corn seeds by shaking the glass container by hand. In the same manner, 22 mg of the pyraclostrobin emulsifiable concentrate was adhered to the corn seeds.
# as §5, with “75% sulfentrazone,” for “75% sulfentrazone”, “Tables 22” for “Tables 28”, “to 25,” for “to 31,”
# Twelve days after sowing the seeds of corn and Ipomoea lacunose, herbicidal activity was examined.
compound,measurement,setting,value
"C#CCN1C(=O)COc2cc(F)c(N3C(=O)C4=C(CCCC4)C3=O)cc21 [Flumioxazin, flumioxazin]",Protective Value,Spodoptera litura; flumioxazin 12.5 g/ha,0%
same,Protective Value,Spodoptera litura; flumioxazin 50 g/ha,5%
same,Herbicidal activity on Ipomoea hederacea,Ipomoea hederacea [1],88
same,Evaluation of Effect on Weeds,Ipomoea hederacea [2],25
same,Protective Value,Aulacorthum solani [3]; flumioxazin 12.5 g/ha,0%
same,Protective Value,Aulacorthum solani [3]; flumioxazin 25 g/ha,0%
same,Protective Value,Aulacorthum solani [4],0%
same,Herbicidal activity,Ipomoea lacunosa [5],40
same,Herbicidal activity,Ipomoea lacunosa [6],40
